Experimental data: ChEMBL document CHEMBL1158851, “Friedelane triterpenoids from Maytenus macrocarpa” (J Nat Prod, 1998)

What was measured:
Format in all cases: functional, cell-based
SK-MEL-28 = assay: Cytotoxicity against human SK-MEL-28 cells
A549 = assay: Cytotoxicity against human A549 cells
HT-29 = assay: Cytotoxicity against human HT-29 cells
P388 = assay: Cytotoxicity against mouse P388 cells

Measured: IC50

C[C@H]1C(=O)CC(=O)[C@@H]2[C@]1(C)CC[C@H]1[C@@]2(C)CC[C@@]2(C)[C@@H]3CC(C)(C)CC[C@]3(CO)CC[C@]12C
> 10 µg/mL: all assays above

CC(=O)OC[C@]12CCC(C)(C)C[C@H]1[C@]1(C)CC[C@@]3(C)[C@@H]4C(=O)C=C(OC(C)=O)[C@H](C)[C@@]4(C)CC[C@@H]3[C@@]1(C)CC2
> 10 µg/mL: all assays above
